Results taken from patent publication US20250382297A1, “INHIBITORS OF FGFR2 AND FGFR3 AND USES THEREOF” (Insilico Medicine IP Limited, priority 2022, published 2025).
Where two headings read alike, the source gives them in different places.

Assays:
[1] = target: FGFR1 (Homo sapiens (Human), UniProt P11362); assay: FGFR biochemical assay (LanthaScreen TR-FRET kinase assay), FGFR1
Description: (§1) Convert Ratio values to percent inhibition values (Percent inhibition=(max−sample Ratio)/(max−min)*100) where “min” means the Ratio of no enzyme control and “max” means the Ratio of DMSO control. • Data are analyzed and curve fitting is performed by XLFit Excel add-in version 5.4.0.8. The IC50 calculation equation is: Y=Bottom+(Top-Bottom)/(1+ (IC50/X)^HillSlope.

[2] = target: FGFR3 (Homo sapiens (Human), UniProt P22607); assay: FGFR biochemical assay (LanthaScreen TR-FRET kinase assay), FGFR3
Description: as §1

[3] = target: FGFR2 (Homo sapiens (Human), UniProt P21802); assay: FGFR biochemical assay (LanthaScreen TR-FRET kinase assay), FGFR2
Description: as §1

[4] = read-out: FGFR2 IC50, * incubation at room temperature for 60 minutes before addition of substrate solution, ATP 22 μM, FGFR2 0.01 nM
[5] = read-out: FGFR3 IC50, * incubation at room temperature for 60 minutes before addition of substrate solution, ATP 35 μM, FGFR3 0.1 nM
[6] = read-out: FGFR1 IC50, * incubation at room temperature for 60 minutes before addition of substrate solution, ATP 28 μM, FGFR1 0.01 nM

Sequence of FGFR2 (P21802 22-821): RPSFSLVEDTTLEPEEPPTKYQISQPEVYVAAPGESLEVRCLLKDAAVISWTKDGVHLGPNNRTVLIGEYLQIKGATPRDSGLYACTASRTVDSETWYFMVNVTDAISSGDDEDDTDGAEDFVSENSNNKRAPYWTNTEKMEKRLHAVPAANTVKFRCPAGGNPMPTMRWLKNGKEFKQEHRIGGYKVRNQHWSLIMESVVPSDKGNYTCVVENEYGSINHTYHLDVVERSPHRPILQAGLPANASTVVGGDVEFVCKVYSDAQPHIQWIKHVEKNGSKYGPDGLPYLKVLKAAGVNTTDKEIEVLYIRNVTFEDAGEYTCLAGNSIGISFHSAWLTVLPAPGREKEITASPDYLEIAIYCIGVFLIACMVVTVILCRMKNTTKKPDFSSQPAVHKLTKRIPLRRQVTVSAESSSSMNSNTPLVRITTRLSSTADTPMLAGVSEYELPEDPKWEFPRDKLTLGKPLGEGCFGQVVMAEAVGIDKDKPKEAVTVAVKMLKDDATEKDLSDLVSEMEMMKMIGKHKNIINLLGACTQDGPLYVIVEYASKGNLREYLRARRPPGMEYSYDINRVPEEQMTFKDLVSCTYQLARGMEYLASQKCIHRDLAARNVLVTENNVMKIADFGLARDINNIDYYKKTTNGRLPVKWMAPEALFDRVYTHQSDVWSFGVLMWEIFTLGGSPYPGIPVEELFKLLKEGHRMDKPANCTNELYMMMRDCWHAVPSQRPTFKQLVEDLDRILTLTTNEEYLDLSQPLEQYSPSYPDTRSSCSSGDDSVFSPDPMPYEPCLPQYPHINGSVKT
Sequence of FGFR3 (P22607 23-806): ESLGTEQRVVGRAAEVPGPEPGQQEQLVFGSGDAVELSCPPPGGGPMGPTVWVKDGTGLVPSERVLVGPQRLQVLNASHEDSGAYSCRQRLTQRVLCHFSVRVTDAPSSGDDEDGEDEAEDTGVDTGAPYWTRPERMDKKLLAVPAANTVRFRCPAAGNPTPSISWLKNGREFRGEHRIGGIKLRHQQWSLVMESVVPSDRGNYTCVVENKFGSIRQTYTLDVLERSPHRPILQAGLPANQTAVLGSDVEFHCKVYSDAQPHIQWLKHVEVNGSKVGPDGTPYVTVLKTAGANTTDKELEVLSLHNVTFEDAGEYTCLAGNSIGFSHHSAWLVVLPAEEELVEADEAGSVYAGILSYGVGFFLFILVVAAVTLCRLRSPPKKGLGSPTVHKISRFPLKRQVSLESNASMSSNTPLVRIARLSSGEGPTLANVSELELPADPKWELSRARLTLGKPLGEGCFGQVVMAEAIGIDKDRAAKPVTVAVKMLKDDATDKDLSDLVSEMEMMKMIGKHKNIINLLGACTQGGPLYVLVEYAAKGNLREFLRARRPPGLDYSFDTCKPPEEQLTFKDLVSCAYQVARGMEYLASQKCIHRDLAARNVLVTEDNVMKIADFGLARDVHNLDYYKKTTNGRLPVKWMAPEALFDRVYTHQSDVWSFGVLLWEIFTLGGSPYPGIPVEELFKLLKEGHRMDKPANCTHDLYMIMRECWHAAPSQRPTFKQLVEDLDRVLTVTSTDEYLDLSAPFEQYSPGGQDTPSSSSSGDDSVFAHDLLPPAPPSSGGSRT
Sequence of FGFR1 (P11362 22-822): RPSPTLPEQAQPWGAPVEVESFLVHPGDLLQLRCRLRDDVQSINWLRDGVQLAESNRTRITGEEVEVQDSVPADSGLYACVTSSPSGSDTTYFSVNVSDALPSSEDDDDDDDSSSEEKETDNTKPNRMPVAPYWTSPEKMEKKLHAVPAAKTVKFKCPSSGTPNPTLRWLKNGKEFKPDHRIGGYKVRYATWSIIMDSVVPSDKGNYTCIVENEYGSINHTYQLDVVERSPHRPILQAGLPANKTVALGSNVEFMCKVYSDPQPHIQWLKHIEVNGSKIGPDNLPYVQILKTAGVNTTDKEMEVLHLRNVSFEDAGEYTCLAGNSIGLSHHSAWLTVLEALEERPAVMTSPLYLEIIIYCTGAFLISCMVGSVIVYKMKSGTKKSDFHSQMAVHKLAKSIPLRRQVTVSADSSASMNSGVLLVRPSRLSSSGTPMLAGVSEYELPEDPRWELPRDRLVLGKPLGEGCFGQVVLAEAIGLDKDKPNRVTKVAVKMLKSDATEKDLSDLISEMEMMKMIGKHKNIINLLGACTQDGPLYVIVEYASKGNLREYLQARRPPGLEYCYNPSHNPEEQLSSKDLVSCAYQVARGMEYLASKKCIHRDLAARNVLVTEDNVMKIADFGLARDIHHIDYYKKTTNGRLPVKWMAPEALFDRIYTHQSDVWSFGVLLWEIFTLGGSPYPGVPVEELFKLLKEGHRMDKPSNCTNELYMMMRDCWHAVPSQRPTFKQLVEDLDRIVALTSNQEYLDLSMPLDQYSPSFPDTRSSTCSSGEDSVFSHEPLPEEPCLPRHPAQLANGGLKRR

C=C(F)C(=O)Nc1ccc(-c2c(-c3ccc(Oc4nccc(C)n4)c(F)c3)c(C(N)=O)c3cc(C)ncn23)cc1 [Example 85, 6-(3-fluoro-4-((4-methylpyrimidin-2-yl)oxy)phenyl)-7-(4-(2-fluoroacrylamido)phenyl)-3-methylpyrrolo[1,2-c]pyrimidine-5-carboxamide]
IC50 [1]: 100 to 1000 nM
IC50 [2]: 10 to 100 nM
IC50 [3, 4]: < 10 nM

C=C(F)C(=O)Nc1ccc(-c2c(-c3ccc(Oc4nccc(C)n4)c(F)c3)c(C(N)=O)c3cc(-c4cnn(C)c4)ncn23)cc1 [Example 86, 6-(3-fluoro-4-((4-methylpyrimidin-2-yl)oxy)phenyl)-7-(4-(2-fluoroacrylamido)phenyl)-3-(1-methyl-1H-pyrazol-4-yl)pyrrolo[1,2-c]pyrimidine-5-carboxamide]
IC50 [1]: 10 to 100 nM
IC50 [2]: 10 to 100 nM
IC50 [3, 4]: < 10 nM

C=C(F)C(=O)Nc1ccc(-c2c(-c3ccc(Oc4nccc(C)n4)c(F)c3)c(C(N)=O)c3cc(C)cnn23)cc1 [Example 87, 6-(3-fluoro-4-((4-methylpyrimidin-2-yl)oxy)phenyl)-7-(4-(2-fluoroacrylamido)phenyl)-3-methylpyrrolo[1,2-b]pyridazine-5-carboxamide]
IC50 [1]: 10 to 100 nM
IC50 [2]: 10 to 100 nM
IC50 [3, 4]: < 10 nM

C=C(F)C(=O)Nc1ccc(-c2c(-c3ccc(Oc4nccc(C)n4)c(F)c3)c(C(N)=O)c3cc(-c4cnn(C)c4)ncn23)c(F)c1 [Example 91, 6-(3-fluoro-4-((4-methylpyrimidin-2-yl)oxy)phenyl)-7-(2-fluoro-4-(2-fluoroacrylamido)phenyl)-3-(1-methyl-1H-pyrazol-4-yl)pyrrolo[1,2-c]pyrimidine-5-carboxamide]
IC50 [1]: 10 to 100 nM
IC50 [2, 5]: < 10 nM
IC50 [3, 4]: < 10 nM

C=C(F)C(=O)Nc1ccc(-c2c(-c3ccc(Oc4nccc(C)n4)c(F)c3)c(C(N)=O)c3cc(-c4cnn(C)c4)ncn23)c(C)c1 [Example 92, 6-(3-fluoro-4-((4-methylpyrimidin-2-yl)oxy)phenyl)-7-(4-(2-fluoroacrylamido)-2-methylphenyl)-3-(1-methyl-1H-pyrazol-4-yl)pyrrolo[1,2-c]pyrimidine-5-carboxamide]
IC50 [1]: 10 to 100 nM
IC50 [2, 5]: < 10 nM
IC50 [3, 4]: < 10 nM

C=C(F)C(=O)Nc1ccc(-c2c(-c3ccc(Oc4nccc(C)n4)c(F)c3)c(C(N)=O)c3ccc(C)nn23)cc1 [Example 93, 6-(3-fluoro-4-((4-methylpyrimidin-2-yl)oxy)phenyl)-7-(4-(2-fluoroacrylamido)phenyl)-2-methylpyrrolo[1,2-b]pyridazine-5-carboxamide]
IC50 [1]: 100 to 1000 nM
IC50 [2]: 10 to 100 nM
IC50 [3]: 10 to 100 nM

C=C(F)C(=O)Nc1ccc(-c2c(-c3ccc(Oc4nccc(C)n4)c(F)c3)c(C(N)=O)c3ccc(C)nn23)c(C)c1 [Example 94, 6-(3-fluoro-4-((4-methylpyrimidin-2-yl)oxy)phenyl)-7-(4-(2-fluoroacrylamido)-2-methylphenyl)-2-methylpyrrolo[1,2-b]pyridazine-5-carboxamide]
IC50 [1]: 10 to 100 nM
IC50 [2]: 10 to 100 nM
IC50 [3, 4]: < 10 nM

C=C(F)C(=O)N1CCc2cc(-c3c(-c4ccc(Oc5nccc(C)n5)c(F)c4)c(C(N)=O)c4ccc(C)nn34)ccc21 [Example 95, 6-(3-fluoro-4-((4-methylpyrimidin-2-yl)oxy)phenyl)-7-(1-(2-fluoroacryloyl)indolin-5-yl)-2-methylpyrrolo[1,2-b]pyridazine-5-carboxamide]
IC50 [1, 6]: > 1000 nM
IC50 [2]: 100 to 1000 nM
IC50 [3]: 10 to 100 nM

C=C(F)C(=O)N1CCc2cc(-c3c(-c4ccc(Oc5nccc(C)n5)c(F)c4)c(C(N)=O)c4ccc(C)nn34)c(C)cc21 [Example 96, 6-(3-fluoro-4-((4-methylpyrimidin-2-yl)oxy)phenyl)-7-(1-(2-fluoroacryloyl)-6-methylindolin-5-yl)-2-methylpyrrolo[1,2-b]pyridazine-5-carboxamide]
IC50 [1]: 10 to 100 nM
IC50 [2, 5]: < 10 nM
IC50 [3, 4]: < 10 nM

C=C(F)C(=O)N1CCc2cc(-c3c(-c4ccc(Oc5nccc(C)n5)c(F)c4)c(C(N)=O)c4cnc(C)cn34)c(C)cc21 [Example 97, 7-(3-fluoro-4-((4-methylpyrimidin-2-yl)oxy)phenyl)-6-(1-(2-fluoroacryloyl)-6-methylindolin-5-yl)-3-methylpyrrolo[1,2-a]pyrazine-8-carboxamide]
IC50 [1]: 10 to 100 nM
IC50 [2, 5]: < 10 nM
IC50 [3, 4]: < 10 nM

C=C(F)C(=O)N1CCCc2cc(-c3c(-c4ccc(Oc5nccc(C)n5)c(F)c4)c(C(N)=O)c4cnc(C)cn34)c(F)cc21 [Example 98, 6-(7-fluoro-1-(2-fluoroacryloyl)-1,2,3,4-tetrahydroquinolin-6-yl)-7-(3-fluoro-4-((4-methylpyrimidin-2-yl)oxy)phenyl)-3-methylpyrrolo[1,2-a]pyrazine-8-carboxamide]
IC50 [1, 6]: > 1000 nM
IC50 [2]: 100 to 1000 nM
IC50 [3]: 100 to 1000 nM

C=C(F)C(=O)N1CCc2c1ccc(-c1c(-c3ccc(Oc4nccc(C)n4)c(F)c3)c(C(N)=O)c3cnc(C)cn13)c2F [Example 99, 6-(4-fluoro-1-(2-fluoroacryloyl)indolin-5-yl)-7-(3-fluoro-4-((4-methylpyrimidin-2-yl)oxy)phenyl)-3-methylpyrrolo[1,2-a]pyrazine-8-carboxamide]
IC50 [1]: 10 to 100 nM
IC50 [2, 5]: < 10 nM
IC50 [3, 4]: < 10 nM

C=CC(=O)N1CC=C(c2c(-c3ccc(Oc4nccc(C)n4)c(F)c3)c(C(N)=O)c3cnc(C)cn23)CC1 [Example 101, 6-(1-acryloyl-1,2,3,6-tetrahydropyridin-4-yl)-7-(3-fluoro-4-((4-methylpyrimidin-2-yl)oxy)phenyl)-3-methylpyrrolo[1,2-a]pyrazine-8-carboxamide]
IC50 [1]: 10 to 100 nM
IC50 [2]: 10 to 100 nM
IC50 [3]: 10 to 100 nM

C=C(F)C(=O)N1CC2(CC2)c2cc(-c3c(-c4ccc(Oc5nccc(C)n5)c(F)c4)c(C(N)=O)c4cnc(C)cn34)c(F)cc21 [Example 102, 6-(6′-fluoro-1′-(2-fluoroacryloyl)spiro[cyclopropane-1,3′-indolin]-5′-yl)-7-(3-fluoro-4-((4-methylpyrimidin-2-yl)oxy)phenyl)-3-methylpyrrolo[1,2-a]pyrazine-8-carboxamide]
IC50 [1, 6]: < 10 nM
IC50 [2]: 10 to 100 nM
IC50 [3]: 10 to 100 nM

C=C(F)C(=O)Nc1ccc(-c2c(-c3ccc(Oc4nccc(C)n4)c(F)c3)c(C(N)=O)c3cc(C4CC4)ncn23)cc1 [Example 105, 3-cyclopropyl-6-(3-fluoro-4-((4-methylpyrimidin-2-yl)oxy)phenyl)-7-(4-(2-fluoroacrylamido)phenyl)pyrrolo[1,2-c]pyrimidine-5-carboxamide]
IC50 [1]: 10 to 100 nM
IC50 [2]: 10 to 100 nM
IC50 [3, 4]: < 10 nM

C=C(F)C(=O)Nc1ccc(-c2c(-c3ccc(Oc4nccc(C)n4)c(F)c3)c(C(N)=O)c3cncnn23)cc1 [Example 108, 6-(3-fluoro-4-((4-methylpyrimidin-2-yl)oxy)phenyl)-7-(4-(2-fluoroacrylamido)phenyl)pyrrolo[2,1-f][1,2,4]triazine-5-carboxamide]
IC50 [1, 6]: > 1000 nM
IC50 [2]: 100 to 1000 nM
IC50 [3]: 10 to 100 nM
